The test concerns Abutilon theophrasti. Nature of the test: Greenhouse post-emergence herbicidal activity (plant damage, 0 to 100% scale vs untreated control). The format is in vivo. The note with it: 0.796 g ai/ha, ABUTH, AMS + NIS added, read-out: Solo Flumiclorac (0.796 g ai/ha) % activity.

Like-named read-outs stand apart in the source and are kept apart here.

The values that follow come from patent US20230054749A1, “Herbicide Combinations Comprising Glufosinate and Flumiclorac-pentyl” (BASF SE, priority 2020, published 2023).

Excerpt: For the post-emergence treatment, the test plants were first grown to 3.5 to 4.5 inch (8.9 to 11.4 cm) tall, and only then treated. Here, the herbicidal compositions were suspended or emulsified in water as distribution medium and sprayed using finely distributing nozzles.
Flumiclorac (commercial product name: Resource) was used as an emulsifiable concentrate having an active ingredient concentration of 100 g/l. Glufosinate (commercial product name: Liberty) was used as an aqueous soluble liquid of glufosinate ammonium having an active ingredient concentration of 280 g/l. Adjuvants of ammonium sulfate (AMS) and non-ionic surfactant (NIS) were added in all treatments. AMS and NIS were AMS Liquid and Induce at rates of 1680 g/ha and 0.25% (v/v), respectively.
The test period extended over 21 days after treatment (DAT). During this time, the plants were tended and their response to the individual treatments was evaluated.
The evaluation for the damage caused by the chemical compositions was carried out using a scale from 0 to 100%, compared to the untreated control plants. Here, 0 means no damage and 100 means complete destruction of the plants.
E = X + Y - (X.Y/100) • where X = effect in percent using flumiclorac at an application rate a; • Y = effect in percent using glufosinate at application rate b; • E = expected effect (in %) of flumiclorac plus glufosinate at application rates a + b.
The value E corresponds to the effect (plant damage or injury) which is to be expected if the activity of the individual compounds is just additive.

As for `CCCCCOC(=O)COc1cc(N2C(=O)C3=C(CCCC3)C2=O)c(F)cc1Cl` [Flumiclorac, flumiclorac-pentyl], the inhibition at 0.796 g/ha reads like this: (168 h, 7 DAT) 53%; (336 h, 14 DAT) 45%; (504 h, 21 DAT) 41%.
